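Protocol summary: plate cells (96-well), add compound at 5 concentrations, incubate 48 h, interpolate endpoints linearly. Abbreviation: GI50, concentration required for 50% inhibition of growth. Definition used: TGI = concentration required for complete inhibition of growth.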
Experiments:
Assay in all cases: NCI anticancer screen, dose series, 48 h
786-0 renal = test system: 786-0 renal
A498 renal = test system: A498 renal
A549 NSCLC = test system: A549 NSCLC
ACHN renal = test system: ACHN renal
BT-549 breast = test system: BT-549 breast
CAKI-1 renal = test system: CAKI-1 renal
COLO 205 colon = test system: COLO 205 colon
DU-145 prostate = test system: DU-145 prostate
EKVX NSCLC = test system: EKVX NSCLC
HCC-2998 colon = test system: HCC-2998 colon
HCT-116 colon = test system: HCT-116 colon
HCT-15 colon = test system: HCT-15 colon
HL-60(TB) leukemia = test system: HL-60(TB) leukemia
HOP-62 NSCLC = test system: HOP-62 NSCLC
HOP-92 NSCLC = test system: HOP-92 NSCLC
HS 578T breast = test system: HS 578T breast
HT29 colon = test system: HT29 colon
IGROV1 ovarian = test system: IGROV1 ovarian
K-562 leukemia = test system: K-562 leukemia
KM12 colon = test system: KM12 colon
LOX IMVI melanoma = test system: LOX IMVI melanoma
M14 melanoma = test system: M14 melanoma
MALME-3M melanoma = test system: MALME-3M melanoma
MCF7 breast = test system: MCF7 breast
MDA-MB-231 breast = test system: MDA-MB-231 breast
MDA-MB-435 = test system: MDA-MB-435
MOLT-4 leukemia = test system: MOLT-4 leukemia
NCI-H23 lung = test system: NCI-H23 lung

With c1ccc(-c2nn(-c3ccccc3)[n+](-c3cccc4ccccc34)n2)cc1 the GI50 (786-0 renal) was 5.1 µM, the TGI (786-0 renal) was 29.3 µM and the GI50 (A498 renal) was 2.91 µM. It also gave a TGI (A498 renal) of 33.8 µM, a GI50 (A549 NSCLC) of 2.65 µM and a TGI (A549 NSCLC) of over 100 µM. For the same compound, the GI50 (ACHN renal) was 12 µM, the TGI (ACHN renal) was over 100 µM and the GI50 (BT-549 breast) was 1.85 µM. It also gave a TGI (BT-549 breast) of 17.9 µM, a GI50 (CAKI-1 renal) of 37.1 µM and a TGI (CAKI-1 renal) of over 100 µM. It also gave a GI50 (COLO 205 colon) of 0.313 µM, a TGI (COLO 205 colon) of 1.28 µM and a GI50 (DU-145 prostate) of 4.26 µM. For the same compound, the TGI (DU-145 prostate) was over 100 µM, the GI50 (EKVX NSCLC) was 0.583 µM and the TGI (EKVX NSCLC) was 33.3 µM. The GI50 (HCC-2998 colon) was 1.91 µM, the TGI (HCC-2998 colon) was 14.8 µM and the GI50 (HCT-116 colon) was 0.708 µM. It also gave a TGI (HCT-116 colon) of 17.9 µM, a GI50 (HCT-15 colon) of 31.5 µM and a TGI (HCT-15 colon) of over 100 µM. For the same compound, the GI50 (HL-60(TB) leukemia) was 0.386 µM, the TGI (HL-60(TB) leukemia) was 2.06 µM and the GI50 (HOP-62 NSCLC) was 1.39 µM. It also gave a TGI (HOP-62 NSCLC) of 33.2 µM, a GI50 (HOP-92 NSCLC) of 1.15 µM and a TGI (HOP-92 NSCLC) of 7.68 µM. It also gave a GI50 (HS 578T breast) of 1.77 µM, a TGI (HS 578T breast) of over 100 µM and a GI50 (HT29 colon) of 0.918 µM. For the same compound, the TGI (HT29 colon) was 15.1 µM, the GI50 (IGROV1 ovarian) was 1.59 µM and the TGI (IGROV1 ovarian) was 40.8 µM. For the same compound, the GI50 (K-562 leukemia) was 0.608 µM, the TGI (K-562 leukemia) was 16.1 µM and the GI50 (KM12 colon) was 0.701 µM. The TGI (KM12 colon) was 11.3 µM, the GI50 (LOX IMVI melanoma) was 1.23 µM and the TGI (LOX IMVI melanoma) was over 100 µM. It also gave a GI50 (M14 melanoma) of 3.09 µM, a TGI (M14 melanoma) of 23.1 µM and a GI50 (MALME-3M melanoma) of 0.333 µM. For the same compound, the TGI (MALME-3M melanoma) was 1.13 µM, the GI50 (MCF7 breast) was 0.335 µM and the TGI (MCF7 breast) was 10.6 µM. For the same compound, the GI50 (MDA-MB-231 breast) was 0.787 µM, the TGI (MDA-MB-231 breast) was 12.9 µM and the GI50 (MDA-MB-435) was 0.961 µM. The TGI (MDA-MB-435) was 2.67 µM, the GI50 (MOLT-4 leukemia) was 1.3 µM and the TGI (MOLT-4 leukemia) was 15.8 µM. It also gave a GI50 (NCI-H23 lung) of 0.994 µM and a TGI (NCI-H23 lung) of 12.8 µM.
